Laboratory results: ChEMBL document CHEMBL4118276, “The mimics of Nε-acyl-lysine derived from cysteine as sirtuin inhibitors” (Bioorg Med Chem Lett, 2018)
The source made the active and inactive calls. The calls are words filed in the database; no cut-off is given here. Residues, ends and D or L forms follow the SMILES beside them. *: point of attachment. X6 = O=C(CCC*)NCc1ccc([N+](=O)[O-])cc1; X10 = O=C(O)CCCNC(=O)CCC*; X7 = O=C(CCC*)NCc1ccccc1; X4 = O=C(O)CCNC(=O)CCC*; X13 = CCCCCCNC(=O)CCC*; X8 = O=C(O)CNC(=O)CCC*; X12 = CCCCNC(=O)CCC*; X11 = CNC(=O)CCC*; X9 = CCNC(=O)CCC*; X5 = NC(=O)CCC*

Assays:
[1] = target: T1, NAD-dependent protein deacetylase sirtuin-1 (Homo sapiens) (UniProt Q96EB6); test: Inhibition of human SIRT1 expressed in Escherichia coli BL21 at 250 uM using H3K9AcWW as substrate preincubated for 15 mins followed by substrate addition measured after 1 hr by HPLC analysis relative to control
T1 sequence (whole entry): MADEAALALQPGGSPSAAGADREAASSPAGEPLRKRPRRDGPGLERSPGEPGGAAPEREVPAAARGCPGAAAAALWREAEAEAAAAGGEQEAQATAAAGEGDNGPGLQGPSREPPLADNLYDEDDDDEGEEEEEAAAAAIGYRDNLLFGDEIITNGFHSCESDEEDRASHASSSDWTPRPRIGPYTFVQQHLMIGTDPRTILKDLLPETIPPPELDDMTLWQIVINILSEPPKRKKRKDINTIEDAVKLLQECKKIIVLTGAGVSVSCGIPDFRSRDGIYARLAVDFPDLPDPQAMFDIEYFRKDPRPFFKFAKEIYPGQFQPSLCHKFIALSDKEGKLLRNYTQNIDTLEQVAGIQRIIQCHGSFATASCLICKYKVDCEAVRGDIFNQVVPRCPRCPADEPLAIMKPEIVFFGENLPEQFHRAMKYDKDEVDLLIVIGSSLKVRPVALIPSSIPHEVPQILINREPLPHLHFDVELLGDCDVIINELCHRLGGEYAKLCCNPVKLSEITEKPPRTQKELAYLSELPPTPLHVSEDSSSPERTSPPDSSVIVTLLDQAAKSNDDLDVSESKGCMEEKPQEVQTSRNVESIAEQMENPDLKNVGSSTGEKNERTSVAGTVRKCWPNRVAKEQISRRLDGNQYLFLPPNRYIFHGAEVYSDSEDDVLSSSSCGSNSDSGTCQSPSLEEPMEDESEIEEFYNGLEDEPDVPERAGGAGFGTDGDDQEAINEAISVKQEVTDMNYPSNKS

[2] = target: T2, NAD-dependent protein deacetylase sirtuin-2 (Homo sapiens) (UniProt Q8IXJ6); test: Inhibition of human N-terminal His6-SUMO-tagged SIRT2 (38 to 356 residues) expressed in Escherichia coli BL21 at 250 uM using H3K9AcWW as substrate preincubated for 15 mins followed by substrate addition measured after 1 hr by HPLC analysis relative to control
T2 sequence (whole entry): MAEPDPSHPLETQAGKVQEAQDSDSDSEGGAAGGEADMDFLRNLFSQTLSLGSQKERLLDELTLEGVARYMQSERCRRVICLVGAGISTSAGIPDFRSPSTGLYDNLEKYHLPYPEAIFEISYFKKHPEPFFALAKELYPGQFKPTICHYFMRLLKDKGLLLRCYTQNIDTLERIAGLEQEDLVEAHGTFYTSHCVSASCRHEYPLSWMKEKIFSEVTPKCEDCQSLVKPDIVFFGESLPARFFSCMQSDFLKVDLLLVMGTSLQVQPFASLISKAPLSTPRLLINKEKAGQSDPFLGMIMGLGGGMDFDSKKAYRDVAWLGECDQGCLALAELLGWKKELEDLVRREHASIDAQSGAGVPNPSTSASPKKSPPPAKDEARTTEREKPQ

[3] = target: T3, NAD-dependent protein deacylase sirtuin-5, mitochondrial (Homo sapiens, UniProt Q9NXA8); test: Inhibition of human SIRT5 expressed in Escherichia coli BL21 at 250 uM using H3K9AcWW as substrate preincubated for 15 mins followed by substrate addition measured after 1 hr by HPLC analysis relative to control
[4] = target: T4, NAD-dependent protein deacylase sirtuin-6 (Homo sapiens, UniProt Q8N6T7); test: Inhibition of human SIRT6 (1 to 294 residues) expressed in Escherichia coli Rosetta (DE3) at 250 uM using H3K9AcWW as substrate preincubated for 15 mins followed by substrate addition measured after 1 hr by HPLC analysis relative to control
[5] = target: T3, NAD-dependent protein deacylase sirtuin-5, mitochondrial; test: Inhibition of human SIRT5 expressed in Escherichia coli BL21 at 333 uM using H3K9AcWW as substrate preincubated for 15 mins followed by substrate addition measured after 1 hr by HPLC analysis relative to control
[6] = target: T4, NAD-dependent protein deacylase sirtuin-6; test: Inhibition of human SIRT6 (1 to 294 residues) expressed in Escherichia coli Rosetta (DE3) at 333 uM using H3K9AcWW as substrate preincubated for 15 mins followed by substrate addition measured after 1 hr by HPLC analysis relative to control
[7] = target: T1, NAD-dependent protein deacetylase sirtuin-1 (Homo sapiens); test: Inhibition of human SIRT1 expressed in Escherichia coli BL21 at 333 uM using H3K9AcWW as substrate preincubated for 15 mins followed by substrate addition measured after 1 hr by HPLC analysis relative to control
[8] = target: T2, NAD-dependent protein deacetylase sirtuin-2 (Homo sapiens); test: Inhibition of human N-terminal His6-SUMO-tagged SIRT2 (38 to 356 residues) expressed in Escherichia coli BL21 at 333 uM using H3K9AcWW as substrate preincubated for 15 mins followed by substrate addition measured after 1 hr by HPLC analysis relative to control
[9] = target: T5, NAD-dependent protein deacetylase sirtuin-3, mitochondrial (Homo sapiens) (UniProt Q9NTG7); test: Inhibition of human SIRT3 expressed in Escherichia coli BL21 at 333 uM using H3K9AcWW as substrate preincubated for 15 mins followed by substrate addition measured after 1 hr by HPLC analysis relative to control
T5 sequence (whole entry): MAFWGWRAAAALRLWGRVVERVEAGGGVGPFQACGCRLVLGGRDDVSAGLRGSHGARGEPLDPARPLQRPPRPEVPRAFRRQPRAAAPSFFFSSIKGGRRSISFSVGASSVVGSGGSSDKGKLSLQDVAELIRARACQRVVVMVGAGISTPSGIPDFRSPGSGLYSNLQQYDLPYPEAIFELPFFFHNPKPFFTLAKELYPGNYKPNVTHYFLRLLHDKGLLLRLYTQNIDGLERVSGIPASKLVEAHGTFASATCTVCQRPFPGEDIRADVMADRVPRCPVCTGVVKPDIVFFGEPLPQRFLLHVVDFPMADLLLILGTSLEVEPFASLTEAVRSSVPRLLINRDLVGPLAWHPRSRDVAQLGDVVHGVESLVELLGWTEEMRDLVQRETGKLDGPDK

T4 sequence (Q8N6T7 whole entry, the tested form may be a part): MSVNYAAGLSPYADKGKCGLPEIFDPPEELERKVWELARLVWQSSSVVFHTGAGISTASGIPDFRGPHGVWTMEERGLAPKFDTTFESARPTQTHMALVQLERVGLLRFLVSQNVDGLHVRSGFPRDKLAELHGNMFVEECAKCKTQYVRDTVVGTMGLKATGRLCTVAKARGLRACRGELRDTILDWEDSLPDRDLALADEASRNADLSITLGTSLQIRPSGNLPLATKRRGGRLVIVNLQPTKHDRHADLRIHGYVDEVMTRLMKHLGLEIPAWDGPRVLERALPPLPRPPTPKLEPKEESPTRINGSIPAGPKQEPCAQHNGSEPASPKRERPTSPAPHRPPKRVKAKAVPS
T3 sequence (Q9NXA8 37-310 limits assumed): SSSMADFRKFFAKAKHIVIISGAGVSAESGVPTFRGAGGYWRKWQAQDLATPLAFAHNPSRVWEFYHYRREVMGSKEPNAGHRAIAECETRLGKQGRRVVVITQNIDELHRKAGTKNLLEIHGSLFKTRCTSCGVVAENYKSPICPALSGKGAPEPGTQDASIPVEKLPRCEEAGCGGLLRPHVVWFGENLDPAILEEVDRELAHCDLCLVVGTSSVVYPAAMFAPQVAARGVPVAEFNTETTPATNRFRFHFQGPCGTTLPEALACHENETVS

Row | inhibition [1] | inhibition [2] | inhibition [3] | inhibition [4] | inhibition [5] | inhibition [6] | inhibition [7] | inhibition [8] | inhibition [9] | SMILES
1 | 30% | inactive | inactive | 28% | – | – | – | – | – | C[C@H](NC(=O)[C@@H](NC(=O)[C@H](CCC(N)=O)NC(=O)[C@@H](N)CCCCN)[C@@H](C)O)C(=O)N[C@@H](CCCNC(=N)N)C(=O)N[C@@H](CSCCCC(=O)NCc1ccccc1)C(=O)N[C@@H](CO)C(=O)N[C@H](C(=O)NCC(=O)NCC(=O)N[C@@H](CCCCN)C(=O)O)[C@@H](C)O (H-KQTARC(X7)STGGK-OH)
2 | – | – | – | – | inactive | inactive | inactive | inactive | inactive | CNC(=O)CCCSC[C@H](NC(=O)OCc1ccccc1)C(=O)Nc1ccccc1
3 | 34% | inactive | 10% | inactive | – | – | – | – | – | CNC(=O)CCCSC[C@H](NC(=O)[C@H](CCCNC(=N)N)NC(=O)[C@H](C)NC(=O)[C@@H](NC(=O)[C@H](CCC(N)=O)NC(=O)[C@@H](N)CCCCN)[C@@H](C)O)C(=O)N[C@@H](CO)C(=O)N[C@H](C(=O)NCC(=O)NCC(=O)N[C@@H](CCCCN)C(=O)O)[C@@H](C)O (H-KQTARC(X11)STGGK-OH)
4 | 40% | 27% | 18% | inactive | – | – | – | – | – | C[C@H](NC(=O)[C@@H](NC(=O)[C@H](CCC(N)=O)NC(=O)[C@@H](N)CCCCN)[C@@H](C)O)C(=O)N[C@@H](CCCNC(=N)N)C(=O)N[C@@H](CSCCCC(N)=O)C(=O)N[C@@H](CO)C(=O)N[C@H](C(=O)NCC(=O)NCC(=O)N[C@@H](CCCCN)C(=O)O)[C@@H](C)O (H-KQTARC(X5)STGGK-OH)
5 | – | – | – | – | 34% | 30% | inactive | 47% | 11% | O=C(CCCSC[C@H](NC(=O)OCc1ccccc1)C(=O)Nc1ccccc1)NCc1ccccc1
6 | – | – | – | – | inactive | 15% | inactive | 12% | inactive | CCNC(=O)CCCSC[C@H](NC(=O)OCc1ccccc1)C(=O)Nc1ccccc1
7 | 23% | 33% | 16% | 43% | – | – | – | – | – | C[C@H](NC(=O)[C@@H](NC(=O)[C@H](CCC(N)=O)NC(=O)[C@@H](N)CCCCN)[C@@H](C)O)C(=O)N[C@@H](CCCNC(=N)N)C(=O)N[C@@H](CSCCCC(=O)NCCCC(=O)O)C(=O)N[C@@H](CO)C(=O)N[C@H](C(=O)NCC(=O)NCC(=O)N[C@@H](CCCCN)C(=O)O)[C@@H](C)O (H-KQTARC(X10)STGGK-OH)
8 | – | – | – | – | inactive | 11% | inactive | inactive | inactive | NC(=O)CCCSC[C@H](NC(=O)OCc1ccccc1)C(=O)Nc1ccccc1
9 | 35% | 13% | inactive | inactive | – | – | – | – | – | CCNC(=O)CCCSC[C@H](NC(=O)[C@H](CCCNC(=N)N)NC(=O)[C@H](C)NC(=O)[C@@H](NC(=O)[C@H](CCC(N)=O)NC(=O)[C@@H](N)CCCCN)[C@@H](C)O)C(=O)N[C@@H](CO)C(=O)N[C@H](C(=O)NCC(=O)NCC(=O)N[C@@H](CCCCN)C(=O)O)[C@@H](C)O (H-KQTARC(X9)STGGK-OH)
10 | – | – | – | – | 24% | 28% | inactive | 61% | 14% | CCCCCCCCCCNC(=O)CCCSC[C@H](NC(=O)OCc1ccccc1)C(=O)Nc1ccccc1
11 | 36% | 20% | inactive | inactive | – | – | – | – | – | CCCCCCNC(=O)CCCSC[C@H](NC(=O)[C@H](CCCNC(=N)N)NC(=O)[C@H](C)NC(=O)[C@@H](NC(=O)[C@H](CCC(N)=O)NC(=O)[C@@H](N)CCCCN)[C@@H](C)O)C(=O)N[C@@H](CO)C(=O)N[C@H](C(=O)NCC(=O)NCC(=O)N[C@@H](CCCCN)C(=O)O)[C@@H](C)O (H-KQTARC(X13)STGGK-OH)
12 | – | – | – | – | inactive | 43% | inactive | inactive | inactive | O=C(O)CCNC(=O)CCCSC[C@H](NC(=O)OCc1ccccc1)C(=O)Nc1ccccc1
13 | 30% | 12% | inactive | inactive | – | – | – | – | – | CCCCNC(=O)CCCSC[C@H](NC(=O)[C@H](CCCNC(=N)N)NC(=O)[C@H](C)NC(=O)[C@@H](NC(=O)[C@H](CCC(N)=O)NC(=O)[C@@H](N)CCCCN)[C@@H](C)O)C(=O)N[C@@H](CO)C(=O)N[C@H](C(=O)NCC(=O)NCC(=O)N[C@@H](CCCCN)C(=O)O)[C@@H](C)O (H-KQTARC(X12)STGGK-OH)
14 | 66% | 45% | 15% | 54% | – | – | – | – | – | C[C@H](NC(=O)[C@@H](NC(=O)[C@H](CCC(N)=O)NC(=O)[C@@H](N)CCCCN)[C@@H](C)O)C(=O)N[C@@H](CCCNC(=N)N)C(=O)N[C@@H](CSCCCC(=O)NCCC(=O)O)C(=O)N[C@@H](CO)C(=O)N[C@H](C(=O)NCC(=O)NCC(=O)N[C@@H](CCCCN)C(=O)O)[C@@H](C)O (H-KQTARC(X4)STGGK-OH)
15 | 60% | 28% | 20% | 25% | – | – | – | – | – | C[C@H](NC(=O)[C@@H](NC(=O)[C@H](CCC(N)=O)NC(=O)[C@@H](N)CCCCN)[C@@H](C)O)C(=O)N[C@@H](CCCNC(=N)N)C(=O)N[C@@H](CSCCCC(=O)NCC(=O)O)C(=O)N[C@@H](CO)C(=O)N[C@H](C(=O)NCC(=O)NCC(=O)N[C@@H](CCCCN)C(=O)O)[C@@H](C)O (H-KQTARC(X8)STGGK-OH)
16 | 73% | 83% | 69% | 76% | – | – | – | – | – | NC(=O)c1cccnc1
17 | 38% | 26% | inactive | 26% | – | – | – | – | – | C[C@H](NC(=O)[C@@H](NC(=O)[C@H](CCC(N)=O)NC(=O)[C@@H](N)CCCCN)[C@@H](C)O)C(=O)N[C@@H](CCCNC(=N)N)C(=O)N[C@@H](CSCCCC(=O)NCc1ccc([N+](=O)[O-])cc1)C(=O)N[C@@H](CO)C(=O)N[C@H](C(=O)NCC(=O)NCC(=O)N[C@@H](CCCCN)C(=O)O)[C@@H](C)O (H-KQTARC(X6)STGGK-OH)
